{"source": "patent US7511026B2", "about": "“Therapeutic agent for nerve damage” (Seikagaku Corporation, priority 2003, dated 2009)", "format_in_all_cases": "in vivo, Wister rats", "key": {"[1]": {"tested_on": "spinal cord injury, slightly injured model", "test": "Histopathologic evaluation of injured spinal cord (Kluver-Barrera staining), slightly injured model", "method": "Wister rats (SPF, male) were used as animals, and each body was shaved from the neck to the hip using an electric hair clipper under pentobarbital (50 mg/kg weight) anesthesia and cleaned with 70% ethanol and Isodine (manufactured by Meiji Seika Kaisha, Ltd.). The dorsal skin was incised to expose thoracic vertebra from T5 to T10, and hemilaminectomy of the sixth thoracic vertebra (T6 thoracic vertebra) was performed to make a small incision in the dura mater, followed by regional anesthesia with xylocaine (manufactured by Astra Zeneca). Subsequently, two models were prepared as follows: a spatula (the tip of which had been processed into 0.3 mm) was inserted to the T6 position from the dorsal until the tip reached the abdominal centrum and maintained for 10 minutes to injure the spinal cord (slightly injured model), while a tweezer (the tip of which had been processed into 0.3 mm) was inserted until the tip reached the abdominal centrum, and the portion was pinched from both sides for 10 seconds to injure the spinal cord (seriously injured model). A respirator was used only when spinal cord evoked potentials were measured. The respirator was inserted into the windpipe under 1.0 to 2.0% halothane anesthesia and stabilized with a muscle relaxant. After the injury, HA4 (6 μl) was immediately administered using a microsyringe (25 μl; manufactured by Ito Seisakusyo Co., Ltd.) into the dura mater. Thereafter, the tip (OD: 0.3 mm) of a tube that was filled with HA4 and connected with an osmotic pump (model 1002, manufactured by Alzet) was placed under the dura mater of the rostral in the injured portion, and HA4 was continuously administered for 7 days. Meanwhile, 5 minutes, 2 hours, 4 hours, and 6 hours after the injury, 30 mg/kg of methylprednisolone sodium succinate (MPSS, manufactured by Pharmacia) was administered into the tail vein as a positive control. For separating the injured portion from the surrounding tissues, a gelatin sponge (Gelform; manufactured by Pharmacia) was placed, and the rat was brought back to a feeding gauge after the wound had been sewn. […]"}, "[2]": {"tested_on": "spinal cord injury, slightly injured model", "test": "Spinal cord evoked potential (SCEP), slightly injured model", "details": "HA4 60 μg/animal/day, 7 days after injury", "method": "(§1) Wister rats (SPF, male) were used as animals, and each body was shaved from the neck to the hip using an electric hair clipper under pentobarbital (50 mg/kg weight) anesthesia and cleaned with 70% ethanol and Isodine (manufactured by Meiji Seika Kaisha, Ltd.). The dorsal skin was incised to expose thoracic vertebra from T5 to T10, and hemilaminectomy of the sixth thoracic vertebra (T6 thoracic vertebra) was performed to make a small incision in the dura mater, followed by regional anesthesia with xylocaine (manufactured by Astra Zeneca). […] A respirator was used only when spinal cord evoked potentials were measured. […]\n(§2) 7 days after the spinal cord injury, the spinal cord evoked potentials were determined. […] Then, the spinal cord evoked potential (SCEP) was measured, and the “mean±SD” was calculated. The resultant potentials were evaluated using the amplitude of the first potential as an indicator. […]"}, "[3]": {"tested_on": "spinal cord injury model", "test": "Evaluation on performance status (walking) after spinal cord injury", "details": "7 days after the administration; PBS-administered group showed difficulty in walking", "method": "Wister rats (SPF, male) were used as animals, and each body was shaved from the neck to the hip using an electric hair clipper under pentobarbital (50 mg/kg weight) anesthesia and cleaned with 70% ethanol and Isodine (manufactured by Meiji Seika Kaisha, Ltd.). The dorsal skin was incised to expose thoracic vertebra from T5 to T10, and hemilaminectomy of the sixth thoracic vertebra (T6 thoracic vertebra) was performed to make a small incision in the dura mater, followed by regional anesthesia with xylocaine (manufactured by Astra Zeneca). Subsequently, two models were prepared as follows: a spatula (the tip of which had been processed into 0.3 mm) was inserted to the T6 position from the dorsal until the tip reached the abdominal centrum and maintained for 10 minutes to injure the spinal cord (slightly injured model), while a tweezer (the tip of which had been processed into 0.3 mm) was inserted until the tip reached the abdominal centrum, and the portion was pinched from both sides for 10 seconds to injure the spinal cord (seriously injured model). A respirator was used only when spinal cord evoked potentials were measured. The respirator was inserted into the windpipe under 1.0 to 2.0% halothane anesthesia and stabilized with a muscle relaxant. […]"}, "[4]": {"tested_on": "spinal cord injury, severely injured model (II)", "test": "Hind limb motor function test (BBB scale), severely injured model (II)", "details": "HA4 6 μg/day, over 1 to 7 days after the spinal cord injury, P<0.0001 vs physiological saline-administered group", "method": "Wister rats (SPF, male) were used as animals, and each body was shaved from the neck to the hip using an electric hair clipper under pentobarbital (50 mg/kg weight) anesthesia and cleaned with 70% ethanol and Isodine (manufactured by Meiji Seika Kaisha, Ltd.). The dorsal skin was incised to expose thoracic vertebra from T5 to T10, and hemilaminectomy of the sixth thoracic vertebra (T6 thoracic vertebra) was performed to make a small incision in the dura mater, followed by regional anesthesia with xylocaine (manufactured by Astra Zeneca). Subsequently, two models were prepared as follows: a spatula (the tip of which had been processed into 0.3 mm) was inserted to the T6 position from the dorsal until the tip reached the abdominal centrum and maintained for 10 minutes to injure the spinal cord (slightly injured model), while a tweezer (the tip of which had been processed into 0.3 mm) was inserted until the tip reached the abdominal centrum, and the portion was pinched from both sides for 10 seconds to injure the spinal cord (seriously injured model). A respirator was used only when spinal cord evoked potentials were measured. […] According to the method described by Basso et al., two test examiners individually evaluated blindly using the Basso-Beeattie-Bresnahan (BBB) scale, and the mean values were defined as the final score (FIG. 13)."}, "[5]": {"tested_on": "spinal cord injury, seriously injured model (II)", "test": "Spinal cord evoked potential (SCEP), seriously injured model (II)", "details": "HA4 6.0 μg/animal/day, vs physiological saline-administered group, p<0.05", "method": "as §1, §2"}, "[6]": {"tested_on": "spinal cord injury, severely injured model (II)", "test": "Balance beam and metal gauze crossing tests, severely injured model (II)", "details": "7 days after spinal cord injury, mean of four crossings, P<0.0001 vs physiological saline-administered group", "method": "Wister rats (SPF, male) were used as animals, and each body was shaved from the neck to the hip using an electric hair clipper under pentobarbital (50 mg/kg weight) anesthesia and cleaned with 70% ethanol and Isodine (manufactured by Meiji Seika Kaisha, Ltd.). The dorsal skin was incised to expose thoracic vertebra from T5 to T10, and hemilaminectomy of the sixth thoracic vertebra (T6 thoracic vertebra) was performed to make a small incision in the dura mater, followed by regional anesthesia with xylocaine (manufactured by Astra Zeneca). Subsequently, two models were prepared as follows: a spatula (the tip of which had been processed into 0.3 mm) was inserted to the T6 position from the dorsal until the tip reached the abdominal centrum and maintained for 10 minutes to injure the spinal cord (slightly injured model), while a tweezer (the tip of which had been processed into 0.3 mm) was inserted until the tip reached the abdominal centrum, and the portion was pinched from both sides for 10 seconds to injure the spinal cord (seriously injured model). A respirator was used only when spinal cord evoked potentials were measured. […] Then, the numbers of slips in the hind limb were recorded, and evaluated by the mean value (FIG. 12). As for the sham surgery group prepared by making a small incision in the dura mater (Sham), the number of slips in the hind limb was also determined."}, "[7]": {"tested_on": "spinal cord injury, seriously injured model (I)", "test": "Spinal cord evoked potential (SCEP), seriously injured model (I)", "details": "for SCEP amplitude (first potential): 7 days after injury, vs PBS-administered group", "method": "Wister rats (SPF, male) were used as animals, and each body was shaved from the neck to the hip using an electric hair clipper under pentobarbital (50 mg/kg weight) anesthesia and cleaned with 70% ethanol and Isodine (manufactured by Meiji Seika Kaisha, Ltd.). The dorsal skin was incised to expose thoracic vertebra from T5 to T10, and hemilaminectomy of the sixth thoracic vertebra (T6 thoracic vertebra) was performed to make a small incision in the dura mater, followed by regional anesthesia with xylocaine (manufactured by Astra Zeneca). Subsequently, two models were prepared as follows: a spatula (the tip of which had been processed into 0.3 mm) was inserted to the T6 position from the dorsal until the tip reached the abdominal centrum and maintained for 10 minutes to injure the spinal cord (slightly injured model), while a tweezer (the tip of which had been processed into 0.3 mm) was inserted until the tip reached the abdominal centrum, and the portion was pinched from both sides for 10 seconds to injure the spinal cord (seriously injured model). A respirator was used only when spinal cord evoked potentials were measured. The respirator was inserted into the windpipe under 1.0 to 2.0% halothane anesthesia and stabilized with a muscle relaxant.\nAfter the injury, HA4 (6 μl) was immediately administered using a microsyringe (25 μl; manufactured by Ito Seisakusyo Co., Ltd.) into the dura mater. Thereafter, the tip (OD: 0.3 mm) of a tube that was filled with HA4 and connected with an osmotic pump (model 1002, manufactured by Alzet) was placed under the dura mater of the rostral in the injured portion, and HA4 was continuously administered for 7 days. […]\nas §2"}}}
{"smiles": "CC(=O)N[C@H]1[C@H](O[C@H]2[C@H](O)[C@@H](O)[C@H](O[C@H]3[C@H](O)[C@@H](CO)OC(O)[C@@H]3NC(C)=O)O[C@@H]2C(=O)O)O[C@H](CO)[C@@H](O)[C@@H]1O[C@@H]1O[C@H](C(=O)O)[C@@H](O)[C@H](O)[C@H]1O", "note": "(stereo partly shown) [HA4, GlcA-GlcNAc-GlcA-GlcNAc]", "values": [{"measurement": "number of axons crossing from white matter to gray matter", "setting": "[1]; 5 mm range in the rostral/caudal direction in the injured site, vs physiological saline-administered group", "result": "significantly larger"}, {"measurement": "tissue injury, edema and myelin loss in white matter", "setting": "[1]; Kluver-Barrera staining, PBS group showed edema and myelin loss 1 cm or more from the injured site", "result": "the tissue injury was present only near the injured site, and edema and myelin loss were rarely observed in white matter"}, {"measurement": "injured area (damaged area)", "setting": "[1]; coronal plane including the central canal, vs PBS-administered group", "result": "significantly smaller"}, {"measurement": "SCEP amplitude level relative to normal (no injury-no treatment group)", "setting": "[2]", "result": "the same as the normal level"}, {"measurement": "SCEP amplitude (first potential)", "setting": "[2]; intradural, continuous 7 days, vs PBS-administered group, p<0.05", "result": "decrease of SCEP amplitude was significantly attenuated or the SCEP amplitude was recovered"}, {"measurement": "performance status (walking)", "setting": "[3]", "result": "walking approximately similar to that of the normal rat was observed"}, {"measurement": "motor function in the hind limb (BBB scale)", "setting": "[4]", "result": "significantly recovered"}, {"measurement": "SCEP amplitude", "setting": "[5]", "result": "significantly recovered"}, {"measurement": "number of slips in the hind limb, balance beam crossing", "setting": "[6]", "result": "significantly low"}, {"measurement": "number of slips in the hind limb, metal gauze crossing", "setting": "[6]", "result": "significantly low"}, {"measurement": "SCEP amplitude (first potential)", "setting": "[7]; HA4 0.6 μg/animal/day, p<0.05", "result": "decrease of the SCEP amplitude was significantly attenuated or the SCEP amplitude was recovered"}, {"measurement": "SCEP effect compared with MPSS", "setting": "[7]; HA4 6 μg/animal/day vs MPSS 30 mg/kg x 4 times, tail vein", "result": "stronger effect than that of MPSS"}, {"measurement": "SCEP amplitude (first potential)", "setting": "[7]; HA4 6 μg/animal/day, p<0.001, same level as the normal level", "result": "decrease of the SCEP amplitude was significantly attenuated or the SCEP amplitude was recovered"}]}
